Tests used:
[1] = test system: uninephrectomized rats given 1% NaCl and aldosterone infusion; test: Volume expanded hypertensive rats, telemetry (Example A-4); type: in vivo; settings: 24 h average after three weeks
[2] = test system: saline-loaded adrenalectomized rats treated with aldosterone; test: Antimineralocorticoid activity in saline-loaded adrenalectomized rats treated with aldosterone (Example A-2); type: in vivo
Experimental: Methods: The antimineralocorticoid pharmacological activity was determined in saline-loaded adrenalectomized rats treated with aldosterone. […] Urinary sodium, potassium and water excretion were measured.

[3] = test system: saline-loaded adrenalectomized rats treated with aldosterone; test: Subcutaneous vs. oral eplerenone in saline-loaded adrenalectomized rats treated with aldosterone (Example A-3); type: in vivo
Experimental: Urinary sodium, potassium and water excretion were measured. The results are expressed as the ratio of excreted urinary sodium to potassium (Na/K)±SEM.

[4] = test system: saline-hydrated conscious dogs treated with aldosterone; test: Antimineralocorticoid action in saline-hydrated conscious dogs treated with aldosterone (Example A-2); type: in vivo; settings: aldosterone i.v. infusion; antagonist 10 mg/kg orally
[5] = Dissolution rate and physical stability of solid state forms of eplerenone; type: physicochemical; settings: temperatures below the enantiotropic transition temperature, versus Form H
[6] = test system: older patients with systolic hypertension and/or widened pulse pressure; test: Eplerenone versus amlodipine in systolic hypertension in older people, 24 weeks (Examples A-19, D-8); type: in vivo, human
Description: At Week 10 or thereafter, if SBP is =170 mmHg on two consecutive visits, one to three days apart, and the patient is on the maximum dose of study drug, he/she must be withdrawn. Patients will receive double-blind study medication for a total of 24 weeks. Table A-19A illustrates the above-described dosing scheme.
Heart rate, BP, serum potassium levels, concomitant medications and adverse events will be assessed at each visit. […] Special studies: collagen markers [aminoterminal propeptide of type III procollagen (PIIINP), 7S domain of type IV collagen (7SIVC), and type I collagen telopeptide (ICTP)], plasma […] (PAI-1), tissue plasminogen activator (t-PA), microalbuminuria, and at selected sites, Ambulatory Blood Pressure Monitoring (ABPM) and arterial compliance will be done at Weeks 0, 14, and 24 or at Final Visit. Quality of Life Questionnaires will be done at visit 2A (beginning of single blind) and Weeks 0, 14, and 24 or at Final Visit. DNA genotyping will be performed at baseline.
In older patients, elevated systolic BP and wide pulse pressure predict cardiovascular risk better than diastolic BP. Reduced vascular compliance and intraglomerular hypertension typically accompany isolated systolic hypertension in older people.
Changes in arterial compliance, measured by pulse-wave velocity, microalbuminuria, and adverse effects (AEs) were assessed at baseline and after 24 weeks of therapy.

hypertensive patients = test: Eplerenone vs. amlodipine, ambulatory blood pressure monitoring, 16 weeks (Example D-12); type: in vivo, human; settings: in vivo
Description: This was a multicenter, randomized, double-blind, active-controlled, placebo run-in, parallel group study. […] If symptomatic hypotension occurred at Week 2 or Weeks 4, 6, 8, or 12 and the patient was on the lowest dose level (Dose Level 1), the patient was to be withdrawn. Study assessments at protocol-specified timepoints included BP, heart rate, ABPM, Holter recording, clinical laboratory analyses including serum potassium levels, concomitant medications. Throughout the study, safety was assessed by routine clinical laboratory analyses, vital signs, physical examinations, 12-lead ECG, and monitoring of adverse events.

[7] = test system: L-NAME/Angiotensin II/NaCl-treated rats; test: L-NAME/Angiotensin II/NaCl model of cardiac and renal injury (Example A-1); type: in vivo, Male Wistar rats; settings: Epl 100 mg/kg/day p.o., ALDO 40 μg/kg/day in adrenalectomized rats
Experimental: Animals. Male Wistar rats (n=44), weighing 200 to 225 grams, and obtained from Charles River Laboratories (Wilmington, Mass.) were used in the study. All animals were housed in a room lighted 12 hours per day at an ambient temperature of 22±1° C. Animals were allowed one week to recover after arrival and had free access to Purina Lab Chow 5001 (Ralston Purina Inc, St. Louis, Mo.) and tap water until the initiation of the experiment. After initiation of the protocols, animals in all groups were placed in individual metabolic cages, handled and weighed daily. Twenty-four hour fluid intake, food intake and urine output were measured daily. […] On day 14 of L-NAME treatment, animals were decapitated, trunk blood was collected into chilled tubes containing ethylene diamine tetraacetic acid and the heart and kidneys were removed, blotted dry and immediately weighed. […] Drugs. Eplerenone was supplied by G.D. Searle Pharmaceuticals (St. […] Dexamethasone was dissolved in sesame oil and administered as a single subcutaneous dose (12 μg/kg/day) every day. This dose of dexamethasone has been reported to, maintain normal weight gain, glomerular filtration rate, and fasting plasma glucose and insulin levels in adrenalectomized rats. Stanton, B., Giebisch G et al. J. Clin. Invest 1985 75:1317-1326. The experiment was concluded on day 14 of L-NAME treatment. […] (Hou J et al. J. Clin. Invest 1995 96:2469-2477. […] This lower dose induced lesions in stroke-prone spontaneously hypertensive rats. (Rocha R et al. […] Dexamethasone, aldosterone and L-NAME were purchased from Sigma Chemical Co. (St. Louis, Mo.). […] Surgical Procedure. […] Bilateral adrenalectomy was performed using a dorsolumbar approach, making separate incisions on each side. […] No post operative deaths occurred. Assays and Analyses. Systolic blood pressure was measured in awake animals by tail-cuff plethysmography using a Natsume KN-210 manometer and tachometer (Peninsula Laboratories Inc, Belmont, Calif.). Rats were warmed at 37° C. for 10 minutes and allowed to rest quietly in a Lucite chamber before measurement of blood pressure. Urinary protein concentration was determined in urine collected on the last day of the experiment using the sulfosalicylic acid turbidity method. […] Plasma aldosterone concentration was determined using a standard radioimmunoassay-kit from Diagnostic Products Co. (Los Angeles, Calif.). Plasma renin activity (“PRA”) was determined by radioimmunoassay detection of generated angiotensin I (DiaSorin Inc., Stillwater, Minn.). Histology. Hearts were stained with collagen specific dye Sirius red for determination of fibrosis as reported elsewhere. (Young M et al. Am. J. Physiol 1995 269:[…]-[…]). Interstitial collagen was determined using an automated image analyzer. The hearts were also stained with hematoxylin and eosin for light microscopic analysis. Two or three slices of different sections of the heart containing both right and left ventricle were analyzed from each animal. […] Glomerular damage, when present, was characterized as the presence of either segmental or global sclerosis with ischemic or thrombotic changes. Renal arterial and arteriolar damage was categorized as the presence of fibrinoid necrosis of the vascular wall. The renal arterial and arteriolar profiles presenting damage were counted and the number of injured vessels per section was divided by the number of glomeruli in the same section in order to normalize for the amount of tissue examined. […] Statistical analysis. Data were tested for normality using the Kolmogorov-Smirnov test. Systolic blood pressure was analyzed using repeated measures-analysis of variance for time and treatment group. One-way analysis of variance was used for normally distributed data with one grouping variable. Post-hoc analysis was performed using Newman Keuls multiple-comparison test. Data that were not normally distributed were analyzed with the Kruskal-Wallis test. […]

[8] = after 24 weeks, titration-to-effect

CC(=O)S[C@@H]1CC2=CC(=O)CC[C@]2(C)[C@H]2CC[C@@]3(C)[C@@H](CC[C@@]34CCC(=O)O4)[C@H]12 [Spironolactone]
HR: Heart Rate ([1]; aldosterone & antagonist 100 mg/kg s.c.): 338 ± 4 beats/min | HR: Heart Rate ([1]; aldosterone & antagonist 200 mg/kg s.c.): 336 ± 7 beats/min | Urinary Na/K ± SEM ([2]; aldosterone & antagonist 1 mg/kg by gavage): 2.26 ± 0.25 | Urinary Na/K ± SEM ([2]; aldosterone & antagonist 3 mg/kg by gavage): 2.90 ± 0.25 | Urinary Na/K ± SEM ([2]; aldosterone & antagonist 10 mg/kg by gavage): 4.38 ± 0.26 | Mean Na/K ([3]; Table A-3A, aldosterone + antagonist 10 mg/100 g rat): 1.56 | Mean Na/K ([3]; Table A-3A, aldosterone + antagonist 30 mg/100 g rat): 3.02 | Mean Na/K ([3]; Table A-3A, aldosterone + antagonist 100 mg/100 g rat): 4.02 | Na/K Ratio [4]: 1.7 | Urinary Excretion Potassium [4]: 7.4 ± 0.7 mmol/2 h | Urinary Excretion Sodium [4]: 12.6 ± 2 mmol/2 h

COC(=O)[C@@H]1CC2=CC(=O)CC[C@]2(C)[C@@]23O[C@@H]2C[C@@]2(C)[C@@H](CC[C@@]24CCC(=O)O4)[C@H]13 [Form L]
physical stability [5]: greater physical stability

CCOC(=O)C1=C(COCCN)NC(C)=C(C(=O)OC)C1c1ccccc1Cl (centres unmarked) [Amlodipine, reference compound]
Edema rates (%) ([6]; 24-week study): 25.2% | peripheral edema frequency ([6]; 24 weeks): 25.2% | reduction in pulse pressure ([6]; 24 weeks): −13.4 mmHg | symptoms with significant and clinically meaningful worsening in distress from Baseline (QoL) ([6]; 24 weeks): 21 symptoms | reduction in SBP ([6]; 24 weeks, EPL 50-200 mg QD, AML 2.5-10 mg QD): −20.1 mmHg | Pulse Pressure (change) [6, 8]: −13.4 ± 0.95 mmHg | Systolic BP (change) [6, 8]: −20.1 ± 1.13 mmHg | safety and tolerability ([6]; in vivo): safe and well tolerated | Δ microalbuminuria (%) ([6]; only for patients with baseline microalbuminuria (>30 mg/g), 24 weeks): −10.4% | reduction in UACR ([6]; patients with baseline microalbuminuria (>30 mg/g)): −3.3% | incidence of peripheral edema (hypertensive patients): greater incidence of peripheral edema | safety and tolerability (hypertensive patients): safe and well tolerated

C[C@]12CCC(=O)C=C1CC[C@@H]1[C@@H]2[C@@H](O)C[C@]2(C=O)[C@@H](C(=O)CO)CC[C@@H]12 [Aldosterone]
HR: Heart Rate ([1]; aldosterone & vehicle): 346 ± 6 beats/min | SAP: Systolic arterial pressure ([1]; aldosterone & vehicle): 202 ± 7 mmHg | Urinary Na/K ± SEM ([2]; aldosterone alone): 1.68 ± 0.04 | Mean Na/K ([3]; Table A-3A, aldosterone alone): 1.68 | Mean Na/K ([3]; Table A-3B, aldosterone alone): 1.21 | HW ([7]; end of experiment (day 14)): 951 ± 16 mg | HW/BW (cardiac hypertrophy index) ([7]; end of experiment (day 14)): 3.57 ± .06 mg/g | SBP ([7]; end of experiment): 192 ± 7 mmHg | Na/K Ratio [4]: 0.09 | Urinary Excretion Potassium [4]: 10.5 mmol/2 h | Urinary Excretion Sodium [4]: 1.0 mmol/2 h

From patent US20070191324A1, “Methods for treatment or prophylaxis of aldosterone-mediated pathogenic effects in a subject using an epoxy-steroidal aldosterone antagonist” (priority 1999, published 2007)
